Experimental data from patent publication US20090215710A1, “CARBOHYDRATE BASED TOLL-LIKE RECEPTOR (TLR) ANTAGONISTS” (RELIANCE LIFE SCIENCES PVT. LTD., priority 2007, published 2009).

What was measured:
TNF = assay: Pre-screen for TNF inhibition activity of synthesized molecules (Table 1); format: cell-based
[1] = Cell viability in pre-screen (Table 1); format: cell-based

Compound	% TNF Inhibition (TNF; 1 uM) [%]	% TNF Inhibition (TNF; 10 uM) [%]	% TNF Inhibition (TNF; 50 uM) [%]	% TNF Inhibition (TNF; 100 uM) [%]	% Viability ([1]; 1 uM) [%]	% Viability ([1]; 10 uM) [%]	% Viability ([1]; 50 uM) [%]	% Viability ([1]; 100 uM) [%]
COc1ccc(O[C@H]2O[C@@H]3COC(c4ccccc4)O[C@H]3[C@H](O[C@@H]3O[C@H](CO)[C@@H](OC(C)=O)[C@H](OC(C)=O)[C@H]3OC(C)=O)[C@H]2NC(=O)C(Cl)(Cl)Cl)cc1 (stereo partly drawn) [RSCL-0626, p-Methoxy phenyl-O-(2,3,4-tri-O-acetyl-β-D-glucopyranosyl)-(1-3)-2-deoxy-2-trichloroacetamido-4,6-O-benzylidene-α-D-glucopyranoside]	39	43	13	52	97	92	95	89
COc1ccc(O[C@@H]2O[C@H](COC(=O)CCC(C)=O)[C@@H](OC(=O)CCl)[C@H](OC(C)=O)[C@H]2OC(C)=O)cc1 [RSCL-0393, 1-O-(p-Methoxyphenyl)-2,3-di-O-acetyl-4-O-chloroacetyl-6-O-levulinoyl-β-D-glucopyranoside]	2	13	18	76	84	85	81	86
COc1ccc(O[C@H]2O[C@@H]3COC(c4ccccc4)O[C@H]3[C@H](O[C@@H]3O[C@H](COC(=O)CCC(C)=O)[C@@H](O)[C@H](OC(C)=O)[C@H]3OC(C)=O)[C@H]2NC(=O)C(Cl)(Cl)Cl)cc1 (stereo partly drawn) [RSCL-0440, p-Methoxy phenyl-O-(2,3-di-O-acetyl-6-O-levulinoyl-β-D-glucopyranosyl)-(1-3)-2-deoxy-2-trichloroacetamido-4,6-O-benzylidene-α D-glucopyranoside]	34	42	46	47	114	115	129	119
CC(=O)CCC(=O)OC[C@H]1O[C@@H](O[C@H]2[C@@H]3OC(c4ccccc4)OC[C@H]3OC(O)[C@@H]2NC(=O)C(Cl)(Cl)Cl)[C@H](OC(C)=O)[C@@H](OC(C)=O)[C@@H]1OC(=O)CCl (stereo partly drawn) [RSCL-0627, 2,3-Di-O-acetyl-4-O-chloroacetyl-6-O-levulinoyl-β-D-glucopyranosyl-(1-3)-2-deoxy-2-trichloroacetamido-4,6-O-benzylidene-α/β-D-glucopyranoside]	0	80	104	100	105	90	33	13
COc1ccc(O[C@@H]2O[C@@H]3COC(c4ccccc4)O[C@H]3[C@H](O)[C@H]2O)cc1 (stereo partly drawn) [RSCL-0370, 1-O-(p-Methoxyphenyl)-4,6-O-benzylidene-β-D-glucopyranoside]	0	0	0	16	115	120	108	107
COc1ccc(O[C@H]2O[C@@H]3COC(c4ccccc4)O[C@H]3[C@H](O[C@@H]3O[C@H](COC(=O)CCl)[C@@H](OC(C)=O)[C@H](OC(C)=O)[C@H]3OC(C)=O)[C@H]2NC(=O)C(Cl)(Cl)Cl)cc1 (stereo partly drawn) [RSCL-0630, p-Methoxy phenyl-O-(2,3,4-tri-O-acetyl-6-O-chloroacetyl-β-D-glucopyranosyl)-(1-3)-2-deoxy-2-trichloroacetamido-4,6-O-benzylidene-α-D-glucopyranoside]	31	36	61	0	95	88	85	81
COc1ccc(O[C@H]2O[C@@H]3COC(c4ccccc4)O[C@H]3[C@H](O[C@@H]3O[C@H](COC(=O)CCC(C)=O)[C@@H](OS(=O)(=O)O)[C@H](OC(C)=O)[C@H]3OC(C)=O)[C@H]2NC(=O)C(Cl)(Cl)Cl)cc1 (stereo partly drawn) [RSCL-0621, p-Methoxy phenyl-O-(2,3-di-O-acetyl-4-O-sulfo-6-O-levulinoyl-β-D-glucopyranosyl)-(1-3)-2-deoxy-2-trichloroacetamido-4,6-O-benzylidene-α-D-glucopyranoside]	36	38	49	66	90	95	98	96
p-Methoxy phenyl-2-deoxy-2-trichloroacetamido-4,6-O-benzylidene-β-D-glucopyranosyl)-(1-4)-O-(2,3-di-O-acetyl-6-O-levulinoyl-β-D-glucopyranoside [RSCL-0635]	0	0	0	0	97	89	82	81
COc1ccc(O[C@H]2O[C@@H]3COC(c4ccccc4)O[C@H]3[C@H](O[C@@H]3O[C@H](CO)[C@@H](OC(=O)CCl)[C@H](OC(C)=O)[C@H]3OC(C)=O)[C@H]2NC(=O)C(Cl)(Cl)Cl)cc1 (stereo partly drawn) [RSCL-0629, p-Methoxy phenyl-O-(2,3-di-O-acetyl-4-O-chloroacetyl-β-D-glucopyranosyl)-(1-3)-2-deoxy-2-trichloroacetamido-4,6-O-benzylidene-α-D-glucopyranoside]	0	94	102	100	99	57	13	11
COc1ccc(O[C@H]2O[C@@H]3COC(c4ccccc4)O[C@H]3[C@H](O)[C@H]2NC(=O)C(Cl)(Cl)Cl)cc1 (stereo partly drawn) [RSCL-0400, 1-O-(p-Methoxyphenyl)-2-deoxy-2-trichloroacetamido-4,6-O-benzylidene-α-D-glucopyranoside]	0	0	0	0	93	82	70	63
COc1ccc(O[C@H]2O[C@@H]3COC(c4ccccc4)O[C@H]3[C@H](O[C@@H]3O[C@H](CO)[C@@H](O)[C@H](OC(C)=O)[C@H]3OC(C)=O)[C@H]2NC(=O)C(Cl)(Cl)Cl)cc1 (stereo partly drawn) [RSCL-0628, p-Methoxy phenyl-O-(2,3-di-O-acetyl-β-D-glucopyranosyl)-(1-3)-2-deoxy-2-trichloroacetamido-4,6-O-benzylidene-α-D-glucopyranoside]	0	92	102	100	89	60	10	8
COc1ccc(O[C@@H]2O[C@H](COC(C)=O)[C@@H](OC(C)=O)[C@H](OC(C)=O)[C@H]2OC(C)=O)cc1 [RSCL-0367, 1-O-(p-Methoxyphenyl)-2,3,4,6-tetra-O-acetyl-β-D-Glucopyranoside]	0	0	0	0	114	118	105	116
2,3-Di-O-acetyl-4-O-chloroacetyl-6-O-levulinoyl-β-D-glucopyranosyl)-(1-3)-2-deoxy-2-trichloroacetamido-α/β-D-glucopyranoside [RSCL-0632]	0	0	0	30	115	113	94	84
COc1ccc(OC2OC3COC(c4ccccc4)OC3C(OC3OC(COC(=O)CCl)C(OC(=O)CCl)C(OC(C)=O)C3OC(C)=O)C2NC(=O)C(Cl)(Cl)Cl)cc1 [RSCL-0631, p-Methoxy phenyl-O-(2,3-di-O-acetyl-4,6-di-O-chloroacetyl-β-D-glucopyranosyl)-(1-3)-2-deoxy-2-trichloroacetamido-4,6-O-benzylidene-α-D-glucopyranoside]	77	38	92	99	95	70	20	8
COc1ccc(O[C@H]2O[C@@H]3COC(c4ccccc4)O[C@H]3[C@H](O[C@@H]3O[C@H](COC(=O)CCC(C)=O)[C@@H](OC(C)=O)[C@H](OC(C)=O)[C@H]3OC(C)=O)[C@H]2NC(=O)C(Cl)(Cl)Cl)cc1 (stereo partly drawn) [RSCL-0625, p-Methoxy phenyl-O-(2,3,4-tri-O-acetyl-6-O-levulinoyl-β-D-glucopyranosyl)-(1-3)-2-deoxy-2-trichloroacetamido-4,6-O-benzylidene-α-D-glucopyranoside]	31	27	22	31	90	96	99	97
